# Experimental data from patent US20080267948A1, “Croos-B Structure Binding Compounds” (priority 2005, published 2008).
# Entries after “also recorded” stand apart in the source; their conditions may differ.
# How the values were obtained:
# [1] = target: T1, Hb-AGE (glucose-6-phosphate modified human haemoglobin) (Homo sapiens, UniProt P68871+P69905); assay: ELISA binding of tPA to immobilized Hb-AGE, compounds co-incubated with tPA; settings: compound mixed with tPA, control without compound = 100
# T1 construct: purchased Sigma-Aldrich H7379
# T1 sequence (P69905 2-142 limits assumed): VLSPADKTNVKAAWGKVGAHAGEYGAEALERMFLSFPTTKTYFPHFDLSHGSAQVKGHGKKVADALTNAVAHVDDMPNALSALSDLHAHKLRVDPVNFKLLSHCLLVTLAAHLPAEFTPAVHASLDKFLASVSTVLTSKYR
# T1 sequence (P68871 2-147 limits assumed): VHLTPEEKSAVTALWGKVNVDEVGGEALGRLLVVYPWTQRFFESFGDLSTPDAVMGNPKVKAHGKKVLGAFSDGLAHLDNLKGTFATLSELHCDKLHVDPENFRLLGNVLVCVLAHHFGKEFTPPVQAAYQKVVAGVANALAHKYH
# Description: The small compound library is depicted in Tables 4-5. […] Binding experiments were performed in single wells per compound, in a duplicate experiment. Binding data obtained with this duplicate experiment was averaged.
# • 1. […] Coat buffer in control wells. • 2. wash three times with wash buffer • 3. Block all wells with 300 μl 0.5*recommended concentration Roche blocking reagent for 30 minutes at room temperature, with agitation • 4. wash twice • 5. […] Incubate for 30 minutes at room temperature, with agitation • 7. wash five times with TBS/0.1% Tween20 • 8. […] Incubate for 30 minutes at room temperature, with agitation • 10. wash five times with TBS/0.1% Tween20 • 11. Fill wells with 3000× diluted horse raddish peroxidase-labeled polyclonal rabbit anti-mouse antibody (RAMPO, DAKOCytomation) • 12. Incubate for 20 minutes at room temperature, with agitation • 13. Wash five times with TBS/0.1% Tween20 • 14. Wash twice with PBS • 15. Stain with 100 μl TMB, stop with 50 μl 10% H2SO4 • 16. Read absorbance at 450 nm
# [2] = target: T2, heat-denatured misfolded ovalbumin (DOVA) (Gallus gallus, UniProt P01012); assay: ELISA binding of tPA to immobilized misfolded ovalbumin after pre-incubation with compounds; set-up: species or system chicken; settings: for activity at 500 µg/mL: read-out: % tPA binding (after compound incubation), DOVA; for influence on tPA binding to immobilized misfolded OVA: misfolded OVA first overlayed with compound (concentration series), then tPA
# T2 construct: purchased Sigma A5503
# T2 sequence (P01012 2-386 limits assumed): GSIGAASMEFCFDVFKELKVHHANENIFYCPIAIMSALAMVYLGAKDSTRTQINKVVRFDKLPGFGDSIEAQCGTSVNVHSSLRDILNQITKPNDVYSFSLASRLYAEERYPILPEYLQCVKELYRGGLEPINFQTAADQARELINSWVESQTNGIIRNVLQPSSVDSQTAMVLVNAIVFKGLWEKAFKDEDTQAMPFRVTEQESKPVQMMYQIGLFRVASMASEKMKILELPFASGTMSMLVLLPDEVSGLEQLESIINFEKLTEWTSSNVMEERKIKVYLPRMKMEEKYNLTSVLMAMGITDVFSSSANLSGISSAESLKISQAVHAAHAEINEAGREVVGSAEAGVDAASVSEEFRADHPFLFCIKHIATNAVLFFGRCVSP
# Description: (§1) Compounds were now diluted 10× in PBS/0.1% Tween20 (500 μg/ml compound). […] With this approach a further selection of the compounds was achieved. Now, compounds that at least interact with HB-AGE are selected. With the selection, similar binding assays are performed with misfolded OVA and Aβ. Finally, concentration series of the selected compounds are used in the binding studies.
# amyloid-β(1-40) E22Q = target: T3, amyloid-β(1-40) E22Q (Homo sapiens, UniProt P05067, E693Q); assay: ELISA binding of tPA to immobilized Aβ after pre-incubation with compounds; settings: for % tPA binding (after compound incubation), Aβ: 1 μg/ml coated Aβ first exposed to 500 μg/ml compound, then 80 nM tPA, control = 100
# T3 construct: For similar ELISA's with DOVA and Aβ(1-40) E22Q, 1 μg/ml DOVA or Aβ was coated; purchased Peptide facility, Dutch Cancer Institute, Amsterdam; host or cells: synthetic peptide
# T3 sequence (P05067 672-711 E693Q): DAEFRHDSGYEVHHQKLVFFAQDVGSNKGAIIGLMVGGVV
# Description: as §1
# tPA/plasminogen = target: T4, tPA/plasminogen (Homo sapiens, UniProt P00750); assay: tPA/plasminogen activation by OVA heated in the presence of compounds (substrate PNAPEP1751); assay type: biochemical; settings: 25 μg/ml OVA, 25 μg/ml compound, […] DMSO
# T4 construct: purchased Boehringer Ingelheim Actilyse
# T4 sequence (P00750 36-562): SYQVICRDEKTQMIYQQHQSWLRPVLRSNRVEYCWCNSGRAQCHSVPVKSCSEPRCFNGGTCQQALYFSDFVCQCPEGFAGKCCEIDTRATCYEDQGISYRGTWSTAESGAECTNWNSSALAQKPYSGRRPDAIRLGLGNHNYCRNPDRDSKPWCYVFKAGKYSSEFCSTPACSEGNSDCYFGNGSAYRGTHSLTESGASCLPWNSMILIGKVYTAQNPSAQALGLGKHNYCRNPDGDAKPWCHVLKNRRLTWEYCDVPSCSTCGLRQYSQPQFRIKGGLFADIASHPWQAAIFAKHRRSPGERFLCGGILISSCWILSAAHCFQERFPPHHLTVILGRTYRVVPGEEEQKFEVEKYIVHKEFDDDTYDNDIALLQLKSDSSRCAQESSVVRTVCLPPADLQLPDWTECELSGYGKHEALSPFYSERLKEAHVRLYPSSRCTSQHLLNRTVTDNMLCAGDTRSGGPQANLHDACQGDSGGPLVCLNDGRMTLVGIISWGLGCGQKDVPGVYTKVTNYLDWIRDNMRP
# Description: Heated OVA, either in PBS/1% DMSO (positive control), or in the same buffer in the presence of 1 mg/ml of the compounds, was used 40-fold diluted in the assay. Negative control was buffer without OVA. […] In addition, it was assessed whether the compounds interfere with absorbance readings at 405 nm, with converted chromogenic substrate. […] The yellow solution is divided over wells of an ELISA plate. […] Signals are compared and related to the control.
# ovalbumin = target: T5, ovalbumin (Gallus gallus, UniProt P01012); assay: Transmission electron microscopy of ovalbumin heated in the presence of small compounds; set-up: species or system chicken; settings: 1 mg/ml ovalbumin heated with 1 mg/ml compound
# T5 construct: purchased Sigma A5503
# T5 sequence (P01012 1-386): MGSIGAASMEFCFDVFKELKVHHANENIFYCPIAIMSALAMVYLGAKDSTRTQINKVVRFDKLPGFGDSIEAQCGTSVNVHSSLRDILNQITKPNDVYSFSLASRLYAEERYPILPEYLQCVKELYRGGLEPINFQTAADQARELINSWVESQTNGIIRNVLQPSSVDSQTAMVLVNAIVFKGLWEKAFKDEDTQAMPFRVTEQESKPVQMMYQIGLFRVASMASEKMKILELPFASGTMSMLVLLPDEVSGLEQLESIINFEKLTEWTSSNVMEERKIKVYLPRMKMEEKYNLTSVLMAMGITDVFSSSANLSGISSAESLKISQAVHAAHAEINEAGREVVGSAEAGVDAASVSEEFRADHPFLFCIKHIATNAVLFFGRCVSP
# Description: For TEM analyses grids were prepared according to standard procedures. Ovalbumin samples at 1 mg/ml were applied to 100-mesh copper grids with carbon coated Formvar (Merck, Germany), and subsequently washed with PBS and H2O. Grids were applied to droplets of 2% (m/v) methylcellulose with 0.4% (m/v) uranylacetate pH 4. After a 2-minutes incubation grids were dried on a filter. Images were recorded at 80 kV, at suitable magnifications on a JEM-1200EX electron microscope (JEOL, Japan).
# Hb-AGE = target: T6, Hb-AGE (Homo sapiens, UniProt P68871+P69905); assay: ELISA binding of tPA to immobilized Hb-AGE after pre-incubation with compounds; settings: Hb-AGE first overlayed with compound (concentration series), then tPA
# T6 construct: purchased Sigma-Aldrich H7379
# T6 sequence (P69905 2-142 limits assumed): as the sequence (P69905 2-142 limits assumed) above
# T6 sequence (P68871 2-147 limits assumed): as the sequence (P68871 2-147 limits assumed) above
# Description: Compounds were now diluted 10× in PBS/0.1% Tween20 (500 μg/ml compound). […] With the selection, similar binding assays are performed with misfolded OVA and Aβ. Finally, concentration series of the selected compounds are used in the binding studies.
# heat-denatured ovalbumin = target: T7, heat-denatured ovalbumin (Gallus gallus, UniProt P01012); assay: Thioflavin T fluorescence of ovalbumin and small compounds; set-up: species or system chicken; settings: 1 mg/ml compound, 1 mg/ml OVA
# T7 construct: purchased Sigma A5503
# T7 sequence (P01012 1-386): T5 sequence (P01012 1-386)
# Description: To establish the enhancement of Thioflavin T fluorescence by ovalbumin preparations, 90 μl of 25 μM ThT-solution in 50 mM Glycine buffer (pH 9.0) was added to 10 μl sample in duplicate wells of black 96-wells plates. Heat-denatured ovalbumin at 1 mg/ml in PBS with no addition, DMSO at a final concentration of 1% v/v, or 1 mg/ml of the compounds listed in Table 7, was used. Compound stocks are 100 mg/ml in DMSO. In addition, ovalbumin at 1 mg/ml with the same additions was first heat denatured and subsequently used in the fluorescence assay. Heat denaturation was according to the protocol given above. Fluorescence of duplicates was measured on a Thermo Fluoroskan Ascent 2.5, at 435 nm excitation and 485 nm emission wavelengths.
SMILES,% tPA binding to Hb-AGE (co-incubation) [1] [%],activity at 500 µg/mL [2] [%],"% tPA binding (after compound incubation), Aβ (amyloid-β(1-40) E22Q) [%]",also measured
"COc1cc2c(cc1OC)-c1c(OC)c(OC)cc3ccnc(c13)C2=O [compound 204, 7-Oxoglaucine]",70,80,55,
Cn1ccc(O)c(C#N)c1=O [compound 51],,,,influence on tPA/plasminogen activation by OVA pre-heated in the presence of compound (tPA/plasminogen): Inhibition of tPA/plasminogen activation by OVA pre-heated; influence on tPA binding to immobilized misfolded OVA [2]: Stimulated tPA binding to immobilized misfolded protein
COc1ccc2c(c1O)-c1c(OC)c(OC)cc3c1[C@H](C2)N(C)CC3 [compound 138],50,65,,
COc1cc2c(cc1O)CC1c3c(cc(O)c(OC)c3-2)CCN1C (centres unmarked) [compound 53],55,,,
COc1cc2c(cc1OC)-c1c(OC)c(OC)c(CO)c3c1C(C2)N(C)CC3 (centres unmarked) [compound 71],50,,,
"COC(=O)[C@H]1[C@H]2C[C@H]3c4[nH]c5ccccc5c4CCN3C[C@@H]2CC[C@@H]1O [compound 126, corynanthine]",,,,appearance of ovalbumin heated in the presence of compound on TEM image (ovalbumin): No protein visible; influence on tPA binding to immobilized misfolded OVA [2]: Stimulated tPA binding to immobilized misfolded protein
"COc1cc2c(cc1O)-c1c(O)c(OC)cc3c1[C@H](C2)N(C)CC3 [compound 203, Bracteoline]",55,105,85,
CN1CCc2cccc3c2C1Cc1ccc(O)c(O)c1-3 (centres unmarked) [compound 85],,135,,
"Br.CC(=O)N1C=C(C2CCCCN2)CCC1 (centres unmarked) [compound 217, Ammophedrine HBr]",,,,appearance of ovalbumin heated in the presence of compound on TEM image (ovalbumin; HBr): less OVA aggregates after heating in the presence of the; also recorded: Only small amorphous aggregates like Control; influence on tPA binding to immobilized misfolded OVA [2]: Inhibited tPA binding to immobilized misfolded protein (Hb-; influence on tPA binding to immobilized Hb-AGE (Hb-AGE): Inhibited tPA binding to immobilized misfolded protein (Hb-
Cc1ccc(C(=O)[C@@H]2[C@H]3C4COC(O4)C(=O)[C@@H]3[C@H]3C=Cc4ccccc4N32)cc1 (some centres unmarked) [compound 15],,,,"influence on tPA binding to immobilized Aβ (amyloid-β(1-40) E22Q; Aβ first overlayed with compound (concentration series), then tPA): Inhibited tPA binding to immobilized misfolded protein (Aβ); influence on Thioflavin T fluorescence with misfolded OVA (heat-denatured ovalbumin): Inhibition on Thioflavin T fluorescence with misfolded OVA"
"COc1cc2c(cc1OC)-c1c(OC)c(OC)c(C=O)c3c1[C@H](C2)N(C)CC3 [compound 213, dehydroglaucine derivative]",60,105,210,
"COc1cc2c(Cc3c4c5c(cc(OC)c(OC)c5c5c(OC)c(OC)ccc35)CCN4C)c3c4c(cc(OC)c(OC)c4c2cc1OC)CCN3C [compound 210, dehydroglaucine derivative]",80,90,30,
